Reference: PMC10892536, “Establishment and Validation of a Transdermal Drug Delivery System for the Anti-Depressant Drug Citalopram Hydrobromide” (Molecules, 2024)
Where a name gives a salt, the structure may show the parent alone.

Experiment: In vivo pharmacokinetic study in rabbits
Details: oral gavage, n = 6
Procedure: CTH in the samples was quantified using a CoM 6000 HPLC system (CoMetro Technology, South Plainfield, NJ, USA) with a Comatex C18-AB column (250 × 4.6 mm, 5 μm; 115 Corp, Plainfield, NJ, USA) at 238 nm. The mobile phase was 0.1 mol/L acetonitrile, 0.1 mol/L ammonium acetate, and 0.01 mol/L heptane sodium sulfonate at a ratio of 5:5:1 (v/v). The flow rate was 1.0 mL/min, and the column temperature was 25 °C. All sample solutions were degassed and the injection volume was maintained at 20 μL [44, 53]. The particular application detail on the CoM 6000 HPLC system referred to a previous introduction in our laboratory.
The rabbits were assigned to one of the following three groups: A, B, or C. The abdominal hair of the rabbits in groups B and C was shaved off with an electric hair remover, and after cleaning the skin with normal saline, the optimized TDDS was applied to the abdomens of […] in group B, and blank patches were applied to the abdomens of rabbits in group C. Group A was administered CTH by oral gavage. The oral gavage procedure involved fixing the rabbits with an animal fixator and placing a special mouth expander with a rope attached to their mouth. An elastic rubber catheter was inserted through a small round hole in the mouth expander and pushed into the esophagus along the posterior pharyngeal wall. A solution consistent with the TDDS concentration was added. After gastric perfusion, the catheter and mouth opener were removed. Next, 1 mL aliquots of blood were collected from the marginal auricular vein of the experimental animals at different time intervals (1, 2, 4, 7, 12, and 24 h), placed in heparinized tubes, and centrifuged at 1500× g for 10 min. The resulting plasma supernatant was stored at −70 °C until further analysis. HPLC analyses were carried out by transferring 200 μL of the supernatant to a 1.5 mL polyethylene centrifuge tube. The tubes were then mixed with 300 μL acetonitrile, centrifuged at 2500× g for 10 min, and filtered through a 0.22 μm membrane.
The pharmacokinetic parameters of the conventional oral and sustained-release transdermal preparations were analyzed, including the maximum plasma concentration of the drug (Cmax), the time to reach the Cmax (Tmax), the mean residence time (MRT), and the area under the plasma concentration–time curve from time 0 to t (AUC(0-t)). Two-tailed Student’s t-tests were performed for the Cmax and AUC(0-t) analyses, and a non-parametric test was performed for the Tmax analysis. The AUC(0-t) was calculated using the trapezoidal rule.

AUC(0-t): 8460.37 ± 996.43 ng/h/mL
Cmax (rabbit, plasma): 4900 ± 396 ng/mL
MRT (rabbit, plasma): 2.4 ± 0.25 h
Tmax (rabbit, plasma): 1 h
SMILES: CN(C)CCCC1(c2ccc(F)cc2)OCc2cc(C#N)ccc21 (stereo not shown) [CTH, citalopram hydrobromide]
